Patent publication US20250353841A1 (BIOGEN MA INC., priority 2022, published 2025)

test system: mutant Huntington (HTT) protein; test: HTT Mutant HTRF iPSC assay (mHTT protein lowering); assay type: cell-based; conditions: human iPSC derived from a HTT patient with a poly-Q49 mutation

Row | Structure (SMILES) | IC50
1 | Cc1cn2cc(-c3cc(F)c4nc(CC5CCCNC5)cn4c3)cc(F)c2n1 (centres unmarked) [Compound 15, 8,8′-difluoro-2-methyl-2′-(piperidin-3-ylmethyl)-6,6′-biimidazo[1,2-a]pyridine] | 100 to 1000 nM
2 | Cc1cn2nc(-c3cc(F)c4nc([C@H]5C[C@]6(CCN(C)C6)C5)cn4c3)cc(C)c2n1 [Compound 203, 6-(8-fluoro-2-((2s,4s)-6-methyl-6-azaspiro[3.4]octan-2-yl)imidazo[1,2-a]pyridin-6-yl)-2,8-dimethylimidazo[1,2-b]pyridazine] | < 100 nM
3 | Cc1cn2nc(-c3cc(F)c4nc(NC(=O)C5(F)CNC5)cn4c3)cc(C)c2n1 [Compound 270, N-(6-(2,8-dimethylimidazo[1,2-b]pyridazin-6-yl)-8-fluoroimidazo[1,2-a]pyridin-2-yl)-3-fluoroazetidine-3-carboxamide] | < 100 nM
4 | Cc1cn2cc(-c3cc(F)c4nn(C5CCNCC5)nc4c3)cc2c(C)n1 [Compound 378, 6-(1,3-dimethylpyrrolo[1,2-a]pyrazin-7-yl)-4-fluoro-2-(piperidin-4-yl)-2H-benzo[d][1,2,3]triazole] | 100 to 1000 nM
5 | Cc1cn2nc(-c3cc(F)c4nc(C5CCNCC5)cn4c3)c(C)cc2n1 [Compound 101, 6-(8-fluoro-2-(piperidin-4-yl)imidazo[1,2-a]pyridin-6-yl)-2,7-dimethylimidazo[1,2-b]pyridazine] | 1000 to 9000 nM
6 | CCc1nc(C)cn2cc(-c3cc(F)c4nc(C5CCNCC5)nn4c3)cc12 [Compound 152] | < 100 nM
7 | Cc1nc2c(F)cc(-c3cc(F)c4nc(C5CCNCC5)cn4c3)cc2o1 [Compound 82, 4-fluoro-6-(8-fluoro-2-(piperidin-4-yl)imidazo[1,2-a]pyridin-6-yl)-2-methylbenzo[d]oxazole] | < 100 nM
8 | CCN1CCC(c2cn3cc(-c4cc(C)c5nn(C)cc5n4)cc(F)c3n2)CC1 [Compound 173, 5-(2-(1-ethylpiperidin-4-yl)-8-fluoroimidazo[1,2-a]pyridin-6-yl)-2,7-dimethyl-2H-pyrazolo[4,3-b]pyridine] | 100 to 1000 nM
9 | Cn1nnc2ccc(-c3cc(F)c4nc(C5CCNCC5)cn4c3)cc21 [Compound 29, 6-(8-fluoro-2-(piperidin-4-yl)imidazo[1,2-a]pyridin-6-yl)-1-methyl-1H-benzo[d][1,2,3]triazole] | 100 to 1000 nM
10 | Cc1cc(-c2cc(F)c3nc(C4CCNCC4)cn3c2)cc2cn(C)nc12 [Compound 94, 5-(8-fluoro-2-(piperidin-4-yl)imidazo[1,2-a]pyridin-6-yl)-2,7-dimethyl-2H-indazole] | 100 to 1000 nM
11 | Cc1cn2nc(-c3cc(F)c4nc(NC(=O)C5CC(CN(C)C)C5)cn4c3)cc(C)c2n1 (centres unmarked) [Compound 251, 3-((dimethylamino)methyl)-N-(6-(2,8-dimethylimidazo[1,2-b]pyridazin-6-yl)-8-fluoroimidazo[1,2-a]pyridin-2-yl)cyclobutane-1-carboxamide] | 100 to 1000 nM
12 | Cc1cn2nc(-c3cc(F)c4[nH]c(C5CCNC(C)(C)C5)nc4c3)cc(C)c2n1 (centres unmarked) [Compound 419] | 100 to 1000 nM
13 | Cc1cn2nc(-c3cc(F)c4nc(NC(=O)C5CC56CNC6)nn4c3)cc(C)c2n1 (centres unmarked) [Compound 318] | 1000 to 9000 nM
14 | Cc1cn2nc(-c3cc(F)c4[nH]c(C5CCN(C6CCCC6)CC5)nc4c3)cc(C)c2n1 [Compound 427, 6-(2-(1-cyclopentylpiperidin-4-yl)-7-fluoro-1H-benzo[d]imidazol-5-yl)-2,8-dimethylimidazo[1,2-b]pyridazine] | < 100 nM
15 | Cc1cn2nc(-c3cc(F)c4nc(NC(=O)C5CN(C)C5(C)C)cn4c3)cc(C)c2n1 (racemic) [Compound 259, N-(6-(2,8-dimethylimidazo[1,2-b]pyridazin-6-yl)-8-fluoroimidazo[1,2-a]pyridin-2-yl)-1,2,2-trimethylazetidine-3-carboxamide] | 100 to 1000 nM
16 | Fc1cc(-c2ccc3sncc3c2)cn2cc(C3CCNCC3)nc12 [Compound 98, 5-(8-fluoro-2-(piperidin-4-yl)imidazo[1,2-a]pyridin-6-yl)benzo[d]isothiazole] | 1000 to 9000 nM
17 | Cc1cn2nc(-c3cc(F)c4nn(C5CC6(CCNCC6)C5)nc4c3)cc(C)c2n1 [Compound 395, 6-(2,8-dimethylimidazo[1,2-b]pyridazin-6-yl)-4-fluoro-2-(7-azaspiro[3.5]nonan-2-yl)-2H-benzo[d][1,2,3]triazole] | < 100 nM
18 | Cc1cn2nc(-c3cc(F)c4nn([C@H]5[C@@H]6CN(CC7CC7)C[C@@H]65)cc4c3)cc(C)c2n1 [Compound 367, 6-[2-[(1R,5S)-3-(cyclopropylmethyl)-3-azabicyclo[3.1.0]hexan-6-yl]-7-fluoro-indazol-5-yl]-2,8-dimethyl-imidazo[1,2-b]pyridazine] | 100 to 1000 nM
19 | Cc1cn2nc(-c3cc(F)c4nc(C5CCN(C)CC5)nn4c3)cc(C)c2n1 [Compound 434, 6-(2,8-dimethylimidazo[1,2-b]pyridazin-6-yl)-8-fluoro-2-(1-methylpiperidin-4-yl)-[1,2,4]triazolo[1,5-a]pyridine] | 100 to 1000 nM

Row | Structure (SMILES) | IC50
20 | Cc1cn2nc(-c3cc(F)c4nc(N5CCCC(N(C)C)C5)oc4c3)cc(C)c2n1 (centres unmarked) [Compound 500, 1-(6-(2,8-dimethylimidazo[1,2-b]pyridazin-6-yl)-4-fluorobenzo[d]oxazol-2-yl)-N,N-dimethylpiperidin-3-amine] | 100 to 1000 nM
21 | Cc1cn2nc(-c3cc(F)c4nc([C@H]5C[C@@H](C)N[C@@H](C)C5)cn4c3)cc(C)c2n1 [Compound 215, 6-(2-((2S,4r,6R)-2,6-dimethylpiperidin-4-yl)-8-fluoroimidazo[1,2-a]pyridin-6-yl)-2,8-dimethylimidazo[1,2-b]pyridazine] | < 100 nM
22 | Fc1cc(-c2ccc3nonc3c2)cn2cc(C3CCNCC3)nc12 [Compound 51, 5-(8-fluoro-2-(piperidin-4-yl)imidazo[1,2-a]pyridin-6-yl)benzo[c][1,2,5]oxadiazole] | 1000 to 9000 nM
23 | CCc1cc(-c2cc(F)c3nn(C4CCN(C)CC4)cc3c2)nn2cc(C)nc12 [Compound 357, 8-ethyl-6-(7-fluoro-2-(1-methylpiperidin-4-yl)-2H-indazol-5-yl)-2-methylimidazo[1,2-b]pyridazine] | 100 to 1000 nM
24 | Cc1csc2cc(-c3cc(F)c4nc(C5CCNCC5)cn4c3)cnc12 [Compound 35, 6-(8-fluoro-2-(piperidin-4-yl)imidazo[1,2-a]pyridin-6-yl)-3-methylthieno[3,2-b]pyridine] | 1000 to 9000 nM
25 | COc1cc(-c2cc(C)c3nc(C)nn3n2)cn2cc([C@H]3[C@@H]4CN(C)C[C@@H]43)nc12 [Compound 541, 6-(8-methoxy-2-((1R,5S,6r)-3-methyl-3-azabicyclo[3.1.0]hexan-6-yl)imidazo[1,2-a]pyridin-6-yl)-2,8-dimethyl-[1,2,4]triazolo[1,5-b]pyridazine] | 100 to 1000 nM
26 | CNC12COC(c3cn4cc(-c5cc(F)c6nn(C)cc6c5)cc(F)c4n3)(C1)C2 [Compound 79, 1-[8-fluoro-6-(7-fluoro-2-methyl-indazol-5-yl)imidazo[1,2-a]pyridin-2-yl]-N-methyl-2-oxabicyclo[2.1.1]hexan-4-amine] | 100 to 1000 nM
27 | Cc1cn2cc(-c3cc(F)c4nc(C5CCN(C)CC5)cn4c3)cc(C)c2n1 [Compound 9, 8-fluoro-2′,8′-dimethyl-2-(1-methylpiperidin-4-yl)-6,6′-biimidazo[1,2-a]pyridine] | 1000 to 9000 nM
28 | CCC1(N(C)C)CCN(c2nc3c(F)cc(-c4cc(C)c5nc(C)cn5n4)cc3o2)CC1 [Compound 492, 1-(6-(2,8-dimethylimidazo[1,2-b]pyridazin-6-yl)-4-fluorobenzo[d]oxazol-2-yl)-4-ethyl-N,N-dimethylpiperidin-4-amine] | < 100 nM
29 | Cc1cn2nc(-c3cc(F)c4nc(C5CCN(C)CC5)cn4c3)ccc2n1 [Compound 4, 6-[8-fluoro-2-(1-methyl-4-piperidyl)imidazo[1,2-a]pyridin-6-yl]-2-methyl-imidazo[1,2-b]pyridazine] | 100 to 1000 nM
30 | Cc1cn2nc(-c3cc(F)c4nc(C5CCN(C)C5)cn4c3)cc(C)c2n1 (single isomer, unassigned) [Compound 186] | 100 to 1000 nM
31 | Cc1cn2nc(-c3cc(F)c4nc(C5CCNCC5)cn4c3)cc(C3CC3)c2n1 [Compound 194, 8-cyclopropyl-6-(8-fluoro-2-(piperidin-4-yl)imidazo[1,2-a]pyridin-6-yl)-2-methylimidazo[1,2-b]pyridazine] | < 100 nM
32 | Cc1cn2nc(-c3cc(F)c4nc(NC(=O)C5CN(C(C)C)C5)cn4c3)cc(C(F)F)c2n1 [Compound 290, N-[6-[8-(difluoromethyl)-2-methyl-imidazo[1,2-b]pyridazin-6-yl]-8-fluoro-imidazo[1,2-a]pyridin-2-yl]-1-isopropyl-azetidine-3-carboxamide] | < 100 nM
33 | CCc1cc(-c2cc(F)c3nc(C4CCNCC4)cn3c2)cn2cc(C)nc12 [Compound 103, 8-ethyl-8′-fluoro-2-methyl-2′-(piperidin-4-yl)-6,6′-biimidazo[1,2-a]pyridine] | 100 to 1000 nM
34 | Cc1cn2nc(-c3cc(F)c4nc(N5CCC(C)(CN(C)C)C5)oc4c3)cc(C)c2n1 (centres unmarked) [Compound 474, 1-(1-(6-(2,8-dimethylimidazo[1,2-b]pyridazin-6-yl)-4-fluorobenzo[d]oxazol-2-yl)-3-methylpyrrolidin-3-yl)-N,N-dimethylmethanamine] | 100 to 1000 nM
35 | CCN1CCC(c2nc3c(F)cc(-c4cc(C)c5nc(C)cn5n4)cn3n2)CC1 [Compound 435, 6-(2,8-dimethylimidazo[1,2-b]pyridazin-6-yl)-2-(1-ethylpiperidin-4-yl)-8-fluoro-[1,2,4]triazolo[1,5-a]pyridine] | 100 to 1000 nM
36 | Cc1cn2nc(-c3cc(F)c4nc(C56CC(N(C)C)(C5)C6)cn4c3)cc(C)c2n1 [Compound 109, 3-(6-(2,8-dimethylimidazo[1,2-b]pyridazin-6-yl)-8-fluoroimidazo[1,2-a]pyridin-2-yl)-N,N-dimethylbicyclo[1.1.1] pentan-1-amine] | < 100 nM
37 | Cc1cn2nc(-c3ccc4nc(C5CCNCC5)c(F)n4c3)cc(C)c2n1 [Compound 557] | < 100 nM
38 | Cc1cn2nc(-c3cc(F)c4nc(NC(=O)C5CN(C)C5)cn4c3)cc(C)c2n1 [Compound 257, N-(6-(2,8-dimethylimidazo[1,2-b]pyridazin-6-yl)-8-fluoroimidazo[1,2-a]pyridin-2-yl)-1-methylazetidine-3-carboxamide] | < 100 nM
